Data as given in patent US6046171A, “6,11-bridged erythromycin derivatives” (priority 1998, dated 2000).
≈ marks a conversion by molar mass, not a printed value.

Columns and labels:
Format in all cases: cell-based
[1] = tested on: Staphylococcus aureus ATCC 6538P; assay: in vitro antibacterial MIC, agar dilution (BHI agar, Steers replicator); conditions: organism code AA; 35-37° C., 20 to 24 hours; unit assumed
Method: (§1) Representative compounds of the present invention were assayed in vitro for antibacterial activity as follows: Twelve petri dishes containing successive aqueous dilutions of the test compound mixed with 10 mL of sterilized Brain Heart Infusion (BHI) agar (Difco 0418-01-5) were prepared. Each plate was inoculated with 1:100 (or 1:10 for slow-growing strains, such as Micrococcus and Streptococcus) dilutions of up to 32 different microorganisms, using a Steers replicator block. […] In addition, a control plate, using BHI agar containing no test compound, was prepared and incubated at the beginning and end of each test.
(§2) An additional plate containing a compound having known susceptibility patterns for the organisms being tested and belonging to the same antibiotic class as the test compound was also prepared and incubated as a further control, as well as to provide test-to-test comparability.
(§3) After incubation, each plate was visually inspected. The minimum inhibitory concentration (MIC) was defined as the lowest concentration of drug yielding no growth, a slight haze, or sparsely isolated colonies on the inoculum spot as compared to the growth control.

[2] = tested on: Enterococcus faecium ATCC 8Q43; assay: in vitro antibacterial MIC, agar dilution; conditions: organism code II; 35-37° C., 20 to 24 hours; unit assumed
Method: as §1, §2, §3

Escherichia coli SS = assay: in vitro antibacterial MIC, agar dilution; conditions: organism code RR; 35-37° C., 20 to 24 hours; unit assumed
Method: as §1, §2, §3

[3] = tested on: Haemophilis Influenzae DILL AMP R; assay: in vitro antibacterial MIC, agar dilution; conditions: organism code WW; 35-37° C., 20 to 24 hours; unit assumed
Method: as §1, §2, §3

[4] = tested on: Micrococcus luteus ATCC 4698; assay: in vitro antibacterial MIC, agar dilution; conditions: organism code PP; 35-37° C., 20 to 24 hours; unit assumed
Method: as §1, §2, §3

[5] = tested on: Nocardia Asteroides ATCC9970; assay: in vitro antibacterial MIC, agar dilution; conditions: organism code VV; 35-37° C., 20 to 24 hours; unit assumed
Method: as §1, §2, §3

[6] = tested on: Staphylococcus aureus CMX 553; assay: in vitro antibacterial MIC, agar dilution; conditions: organism code FF; 35-37° C., 20 to 24 hours; unit assumed
Method: as §1, §2, §3

[7] = tested on: Staphylococcus aureus CMX 642A; assay: in vitro antibacterial MIC, agar dilution; conditions: organism code DD; 35-37° C., 20 to 24 hours; unit assumed
Method: as §1, §2, §3

[8] = tested on: Staphylococcus epidermidis 3519; assay: in vitro antibacterial MIC, agar dilution; conditions: organism code HH; 35-37° C., 20 to 24 hours; unit assumed
Method: as §1, §2, §3

[9] = tested on: Streptococcus Pheumoniae 5649; assay: in vitro antibacterial MIC, agar dilution; conditions: organism code ZZA; 35-37° C., 20 to 24 hours; unit assumed
Method: as §1, §2, §3

[10] = tested on: Streptococcus Pheumoniae 5979; assay: in vitro antibacterial MIC, agar dilution; conditions: organism code ZZ; 35-37° C., 20 to 24 hours; unit assumed
Method: as §1, §2, §3

[11] = tested on: Streptococcus pyogenes EES61; assay: in vitro antibacterial MIC, agar dilution; conditions: organism code LL; 35-37° C., 20 to 24 hours; unit assumed
Method: as §1, §2, §3

[12] = tested on: Streptococcus pyogenes PIU 2548; assay: in vitro antibacterial MIC, agar dilution; conditions: organism code NN; 35-37° C., 20 to 24 hours; unit assumed
Method: as §1, §2, §3

[13] = tested on: Micrococcus luteus ATCC 9341; assay: in vitro antibacterial MIC, agar dilution; conditions: organism code OO; 35-37° C., 20 to 24 hours; unit assumed
Method: as §1, §2, §3

[14] = tested on: Mycobacterium smegmatis ATCC 114; assay: in vitro antibacterial MIC, agar dilution; conditions: organism code UU; 35-37° C., 20 to 24 hours; unit assumed
Method: as §1, §2, §3

[15] = tested on: Staphylococcus aureus A5177; assay: in vitro antibacterial MIC, agar dilution; conditions: organism code BB; 35-37° C., 20 to 24 hours; unit assumed
Method: as §1, §2, §3

[16] = tested on: Staphylococcus aureus NCTC10649M; assay: in vitro antibacterial MIC, agar dilution; conditions: organism code EE; 35-37° C., 20 to 24 hours; unit assumed
Method: as §1, §2, §3

[17] = tested on: Streptococcus agalactiae CMX 508; assay: in vitro antibacterial MIC, agar dilution; conditions: organism code KK; 35-37° C., 20 to 24 hours; unit assumed
Method: as §1, §2, §3

[18] = tested on: Streptococcus bovis A-5169; assay: in vitro antibacterial MIC, agar dilution; conditions: organism code JJ; 35-37° C., 20 to 24 hours; unit assumed
Method: as §1, §2, §3

Compound: CC[C@H]1OC(=O)[C@H](C)[C@@H](O[C@H]2C[C@@](C)(OC)[C@@H](O)[C@H](C)O2)[C@H](C)[C@@H](O[C@@H]2O[C@H](C)C[C@H](N(C)C)[C@H]2O)[C@@]2(C)C[C@@H](C)C(=O)[C@H](C)[C@H]3N(CCNC(=O)c4ccccc4C=CCO2)C(=O)O[C@]13C [Example 4]
- MIC [1]: 1.56 µg/mL (≈ 1.65 µM)
- MIC [2]: 0.39 µg/mL (≈ 0.413 µM)
- MIC (Escherichia coli SS): 6.2 µg/mL (≈ 6.57 µM)
- MIC [3]: 16 µg/mL (≈ 16.9 µM)
- MIC [4]: 1.56 µg/mL (≈ 1.65 µM)
- MIC [5]: 0.2 µg/mL (≈ 0.212 µM)
- MIC [6]: 1.56 µg/mL (≈ 1.65 µM)
- MIC [7]: 1.56 µg/mL (≈ 1.65 µM)
- MIC [8]: 1.56 µg/mL (≈ 1.65 µM)
- MIC [9]: 16 µg/mL (≈ 16.9 µM)
- MIC [10]: > 128 µg/mL
- MIC [11]: 0.39 µg/mL (≈ 0.413 µM)
- MIC [12]: 12.5 µg/mL (≈ 13.2 µM)

Compound: CC[C@H]1OC(=O)[C@H](C)[C@@H](O[C@H]2C[C@@](C)(OC)[C@@H](O)[C@H](C)O2)[C@H](C)[C@@H](O[C@@H]2O[C@H](C)C[C@H](N(C)C)[C@H]2O)[C@@]2(C)C[C@@H](C)C(=O)[C@H](C)[C@H]3N(CCNC(=O)Cc4ccccc4C=CCO2)C(=O)O[C@]13C [Example 6]
- MIC [1]: 0.78 µg/mL (≈ 0.814 µM)
- MIC [2]: 0.39 µg/mL (≈ 0.407 µM)
- MIC (Escherichia coli SS): 3.1 µg/mL (≈ 3.24 µM)
- MIC [3]: 8 µg/mL (≈ 8.35 µM)
- MIC [4]: 0.78 µg/mL (≈ 0.814 µM)
- MIC [13]: 0.1 µg/mL (≈ 0.104 µM)
- MIC [14]: 0.39 µg/mL (≈ 0.407 µM)
- MIC [5]: 0.39 µg/mL (≈ 0.407 µM)
- MIC [15]: 12.5 µg/mL (≈ 13 µM)
- MIC [6]: 0.78 µg/mL (≈ 0.814 µM)
- MIC [7]: 1.56 µg/mL (≈ 1.63 µM)
- MIC [16]: 1.56 µg/mL (≈ 1.63 µM)
- MIC [8]: 0.78 µg/mL (≈ 0.814 µM)
- MIC [9]: 16 µg/mL (≈ 16.7 µM)
- MIC [10]: > 128 µg/mL
- MIC [17]: 0.1 µg/mL (≈ 0.104 µM)
- MIC [18]: 0.1 µg/mL (≈ 0.104 µM)
- MIC [11]: 0.2 µg/mL (≈ 0.209 µM)
- MIC [12]: 12.5 µg/mL (≈ 13 µM)

Compound: CC[C@H]1OC(=O)[C@H](C)[C@@H](O[C@H]2C[C@@](C)(OC)[C@@H](O)[C@H](C)O2)[C@H](C)[C@@H](O[C@@H]2O[C@H](C)C[C@H](N(C)C)[C@H]2O)[C@@]2(C)C[C@@H](C)C(=O)[C@H](C)[C@H]3N(CCC=CCO2)C(=O)O[C@]13C [Example 17]
- MIC [1]: 0.1 µg/mL (≈ 0.121 µM)
- MIC [2]: 0.05 µg/mL (≈ 0.0606 µM)
- MIC [3]: 8 µg/mL (≈ 9.7 µM)
- MIC [4]: 0.1 µg/mL (≈ 0.121 µM)
- MIC [13]: 0.02 µg/mL (≈ 0.0242 µM)
- MIC [14]: 0.2 µg/mL (≈ 0.242 µM)
- MIC [5]: 0.02 µg/mL (≈ 0.0242 µM)
- MIC [6]: 0.1 µg/mL (≈ 0.121 µM)
- MIC [7]: 0.2 µg/mL (≈ 0.242 µM)
- MIC [16]: 0.2 µg/mL (≈ 0.242 µM)
- MIC [8]: 0.2 µg/mL (≈ 0.242 µM)
- MIC [9]: 8 µg/mL (≈ 9.7 µM)
- MIC [10]: > 128 µg/mL
- MIC [11]: 0.02 µg/mL (≈ 0.0242 µM)

Compound: CC[C@H]1OC(=O)[C@H](C)[C@@H](O[C@H]2C[C@@](C)(OC)[C@@H](O)[C@H](C)O2)[C@H](C)[C@@H](O[C@@H]2O[C@H](C)C[C@H](N(C)C)[C@H]2O)[C@@]2(C)C[C@@H](C)C(=O)[C@H](C)[C@H]3N(CCNCc4cccc(c4)C=CCO2)C(=O)O[C@]13C [Example 11]
- MIC [2]: 0.2 µg/mL (≈ 0.215 µM)
- MIC (Escherichia coli SS): 6.2 µg/mL (≈ 6.67 µM)
- MIC [3]: 32 µg/mL (≈ 34.4 µM)
- MIC [9]: 32 µg/mL (≈ 34.4 µM)
- MIC [10]: > 128 µg/mL

Compound: CC[C@H]1OC(=O)[C@H](C)C(=O)[C@H](C)[C@@H](O[C@@H]2O[C@H](C)C[C@H](N(C)C)[C@H]2O)[C@@]2(C)C[C@@H](C)C(=O)[C@H](C)[C@H]3N(CC=CCO2)C(=O)O[C@]13C [Example 16]
- MIC [1]: 0.39 µg/mL (≈ 0.599 µM)
- MIC [2]: 0.2 µg/mL (≈ 0.307 µM)
- MIC (Escherichia coli SS): 0.78 µg/mL (≈ 1.2 µM)
- MIC [3]: 32 µg/mL (≈ 49.2 µM)
- MIC [4]: 0.39 µg/mL (≈ 0.599 µM)
- MIC [13]: 0.2 µg/mL (≈ 0.307 µM)
- MIC [14]: 6.2 µg/mL (≈ 9.53 µM)
- MIC [5]: 0.39 µg/mL (≈ 0.599 µM)
- MIC [15]: 0.39 µg/mL (≈ 0.599 µM)
- MIC [6]: 0.39 µg/mL (≈ 0.599 µM)
- MIC [7]: 0.39 µg/mL (≈ 0.599 µM)
- MIC [16]: 0.39 µg/mL (≈ 0.599 µM)
- MIC [8]: 0.39 µg/mL (≈ 0.599 µM)
- MIC [10]: > 128 µg/mL
- MIC [17]: 0.2 µg/mL (≈ 0.307 µM)
- MIC [18]: 0.2 µg/mL (≈ 0.307 µM)
- MIC [11]: 0.2 µg/mL (≈ 0.307 µM)
- MIC [12]: 0.39 µg/mL (≈ 0.599 µM)
